These compounds were tested against CDK2/Cyclin E1 (Homo sapiens (Human), UniProt P24941) (assay: CDK2/Cyclin E1 HTRF enzyme activity assay). Conditions: 1 mM ATP.
Assay type: biochemical
Method: Assays are conducted in white 384-well polystyrene plates in a final reaction volume of 8 μL. […] HTRF signals are read after 1 hour at room temperature on a PHERAstar FS plate reader (BMG Labtech). Data is analyzed with IDBS XLFit and GraphPad Prism 5.0 software using a three or four parameter dose response curve to determine IC50 for each compound.

SMILES	IC50 [nM]
CCS(=O)(=O)N1CCC(Nc2ncc(C#N)c(-c3cnn(-c4ccc(CN[C@H]5C[C@](C)(O)C5)cc4Cl)c3)n2)CC1 [Example 193, 4-(1-(2-Chloro-4-((((1r,3r)-3-hydroxy-3-methylcyclobutyl)amino)methyl)phenyl)-1H-pyrazol-4-yl)-2-((1-(ethylsulfonyl)piperidin-4-yl)amino)pyrimidine-5-carbonitrile]	< 50
CCn1cc(CNCc2ccc(-n3cc(-c4nc(NC5CCN(S(C)(=O)=O)CC5)ncc4C#N)cn3)c(Cl)c2)cn1 [Example 194, 4-(1-(2-Chloro-4-((((1-ethyl-1H-pyrazol-4-yl)methyl)amino)methyl)phenyl)-1H-pyrazol-4-yl)-2-((1-(methylsulfonyl)piperidin-4-yl)amino)pyrimidine-5-carbonitrile]	< 50
CS(=O)(=O)N1CCC(Nc2ncc(C#N)c(-c3cnn(-c4ccc(CN[C@@H]5CCCOC5)cc4Cl)c3)n2)CC1 [Example 195, (R)-4-(1-(2-Chloro-4-(((tetrahydro-2H-pyran-3-yl)amino)methyl)phenyl)-1H-pyrazol-4-yl)-2-((1-(methylsulfonyl)piperidin-4-yl)amino)pyrimidine-5-carbonitrile]	< 50
CS(=O)(=O)N1CCC(Nc2ncc(C#N)c(-c3cnn(-c4ccc(CN[C@H]5CCCOC5)cc4Cl)c3)n2)CC1 [Example 196, (S)-4-(1-(2-Chloro-4-(((tetrahydro-2H-pyran-3-yl)amino)methyl)phenyl)-1H-pyrazol-4-yl)-2-((1-(methylsulfonyl)piperidin-4-yl)amino)pyrimidine-5-carbonitrile]	< 50
CCOC(=O)N1CCC(NCc2ccc(-n3cc(-c4nc(NC5CCN(S(C)(=O)=O)CC5)ncc4C#N)cn3)c(Cl)c2)CC1 [Example 197, Ethyl 4-((3-chloro-4-(4-(5-cyano-2-((1-(methylsulfonyl)piperidin-4-yl)amino)pyrimidin-4-yl)-1H-pyrazol-1-yl)benzyl)amino)piperidine-1-carboxylate]	< 50
CS(=O)(=O)N1CCC(Nc2ncc(C#N)c(-c3cnn(-c4ccc(CNCCOC(F)(F)F)cc4Cl)c3)n2)CC1 [Example 199, 4-(1-(2-Chloro-4-(((2-(trifluoromethoxy)ethyl)amino)methyl)phenyl)-1H-pyrazol-4-yl)-2-((1-(methylsulfonyl)piperidin-4-yl)amino)pyrimidine-5-carbonitrile]	< 50
CS(=O)(=O)CCNCc1ccc(-n2cc(-c3nc(NC4CCN(S(C)(=O)=O)CC4)ncc3C#N)cn2)c(Cl)c1 [Example 200, 4-(1-(2-Chloro-4-(((2-(methylsulfonyl)ethyl)amino)methyl)phenyl)-1H-pyrazol-4-yl)-2-((1-(methylsulfonyl)piperidin-4-yl)amino)pyrimidine-5-carbonitrile]	< 50
CC(C)(O)Cn1cc(-c2nc(N[C@H]3CCN(S(=O)(=O)CCCN4CCOCC4)C[C@H]3F)ncc2C(F)(F)F)cn1 [Example 201, 1-(4-(2-(((3R,4S)-3-Fluoro-1-((3-morpholinopropyl)sulfonyl)piperidin-4-yl)amino)-5-(trifluoromethyl)pyrimidin-4-yl)-1H-pyrazol-1-yl)-2-methylpropan-2-ol]	< 50
CCN(CC)CCCS(=O)(=O)N1CC[C@H](Nc2ncc(C(F)(F)F)c(-c3cnn(CC(C)(C)O)c3)n2)[C@H](F)C1 [Example 202, 1-(4-(2-(((3R,4S)-1-((3-(Diethylamino)propyl)sulfonyl)-3-fluoropiperidin-4-yl)amino)-5-(trifluoromethyl)pyrimidin-4-yl)-1H-pyrazol-1-yl)-2-methylpropan-2-ol]	< 50
CC(C)(O)Cn1cc(-c2nc(N[C@H]3CCN(S(=O)(=O)CCCN4CCCC4)C[C@H]3F)ncc2C(F)(F)F)cn1 [Example 203, 1-(4-(2-(((3R,4S)-3-Fluoro-1-((3-(pyrrolidin-1-yl)propyl)sulfonyl)piperidin-4-yl)amino)-5-(trifluoromethyl)pyrimidin-4-yl)-1H-pyrazol-1-yl)-2-methylpropan-2-ol]	< 50
CC(C)(O)Cn1cc(-c2nc(N[C@H]3CCN(S(=O)(=O)CCCN4CCCCC4)C[C@H]3F)ncc2C(F)(F)F)cn1 [Example 204, 1-(4-(2-(((3R,4S)-3-Fluoro-1-((3-(piperidin-1-yl)propyl)sulfonyl)piperidin-4-yl)amino)-5-(trifluoromethyl)pyrimidin-4-yl)-1H-pyrazol-1-yl)-2-methylpropan-2-ol]	< 50
CN(C)CCCS(=O)(=O)N1CC[C@H](Nc2ncc(C(F)(F)F)c(-c3cnn(CC(C)(C)O)c3)n2)[C@H](F)C1 [Example 205, 1-(4-(2-(((3R,4S)-1-((3-(Dimethylamino)propyl)sulfonyl)-3-fluoropiperidin-4-yl)amino)-5-(trifluoromethyl)pyrimidin-4-yl)-1H-pyrazol-1-yl)-2-methylpropan-2-ol]	< 50
CO[C@@H]1CCN(CCCS(=O)(=O)N2CC[C@H](Nc3ncc(C(F)(F)F)c(-c4cnn(CC(C)(C)O)c4)n3)[C@H](F)C2)C1 [Example 206, 1-(4-(2-(((3R,4S)-3-Fluoro-1-((3-((R)-3-methoxypyrrolidin-1-yl)propyl)sulfonyl)piperidin-4-yl)amino)-5-(trifluoromethyl)pyrimidin-4-yl)-1H-pyrazol-1-yl)-2-methylpropan-2-ol]	< 50

Now from value to compound:

IC50 [nM]	SMILES
< 50	CS(=O)(=O)N1CCC(Nc2ncc(C#N)c(-c3cnn(-c4ccc(CN[C@H]5CCC[C@H](O)C5)cc4Cl)c3)n2)CC1 [Example 181, 4-(1-(2-Chloro-4-((((1S,3S)-3-hydroxycyclohexyl)amino)methyl)phenyl)-1H-pyrazol-4-yl)-2((1-(methylsulfonyl)piperidin-4-yl)amino)pyrimidine-5-carbonitrile]
< 50	CS(=O)(=O)N1CCC(Nc2ncc(C#N)c(-c3cnn(-c4ccc(CN[C@H]5CC[C@H](O)CC5)cc4Cl)c3)n2)CC1 [Example 182, 4-(1-(2-Chloro-4-((((1r,4r)-4-hydroxycyclohexyl)amino)methyl)phenyl)-1H-pyrazol-4-yl)-2-((1-(methylsulfonyl)piperidin-4-yl)amino)pyrimidine-5-carbonitrile]
< 50	CS(=O)(=O)N1CCC(Nc2ncc(C#N)c(-c3cnn(-c4ccc(CNC5CCC(C#N)CC5)cc4Cl)c3)n2)CC1 (stereo not shown) [Example 183, 4-(1-(2-Chloro-4-(((4-cyanocyclohexyl)amino)methyl)phenyl)-1H-pyrazol-4-yl)-2-((1-(methylsulfonyl)piperidin-4-yl)amino)pyrimidine-5-carbonitrile]
< 50	CN(C)C1CCCCC1NCc1ccc(-n2cc(-c3nc(NC4CCN(S(C)(=O)=O)CC4)ncc3C#N)cn2)c(Cl)c1 (stereo not shown) [Example 184, 4-(1-(2-Chloro-4-(((2-(dimethylamino)cyclohexyl)amino)methyl)phenyl)-1H-pyrazol-4-yl)-2-((1-(methylsulfonyl)piperidin-4-yl)amino)pyrimidine-5-carbonitrile]
< 50	CS(=O)(=O)N1CCC(Nc2ncc(C#N)c(-c3cnn(-c4ccc(CN[C@H]5CC[C@@H](S(C)(=O)=O)CC5)cc4Cl)c3)n2)CC1 [Example 185, 4-(1-(2-Chloro-4-((((cis)-4-(methylsulfonyl)cyclohexyl)amino)methyl)phenyl)-1H-pyrazol-4-yl)-2-((1-(methylsulfonyl)piperidin-4-yl)amino)pyrimidine-5-carbonitrile]
< 50	CS(=O)(=O)N1CCC(Nc2ncc(C#N)c(-c3cnn(-c4ccc(CN[C@@H]5CCC[C@H]5O)cc4Cl)c3)n2)CC1 [Example 186, 4-(1-(2-Chloro-4-((((1R,2R)-2-hydroxycyclopentyl)amino)methyl)phenyl)-1H-pyrazol-4-yl)-2-((1-(methylsulfonyl)piperidin-4-yl)amino)pyrimidine-5-carbonitrile]
< 50	CS(=O)(=O)N1CCC(Nc2ncc(C#N)c(-c3cnn(-c4ccc(CN[C@H]5CCC[C@@H]5O)cc4Cl)c3)n2)CC1 [Example 187, 4-(1-(2-Chloro-4-((((1S,2S)-2-hydroxycyclopentyl)amino)methyl)phenyl)-1H-pyrazol-4-yl)-2-((1-(methylsulfonyl)piperidin-4-yl)amino)pyrimidine-5-carbonitrile]
< 50	CS(=O)(=O)N1CCC(Nc2ncc(C#N)c(-c3cnn(-c4ccc(CN[C@H]5CC[C@@H](O)C5)cc4Cl)c3)n2)CC1 [Example 188, 4-(1-(2-Chloro-4-((((1S,3R)-3-hydroxycyclopentyl)amino)methyl)phenyl)-1H-pyrazol-4-yl)-2-((1-(methylsulfonyl)piperidin-4-yl)amino)pyrimidine-5-carbonitrile]
< 50	CS(=O)(=O)N1CCC(Nc2ncc(C#N)c(-c3cnn(-c4ccc(CN[C@@H]5CC[C@@H](O)C5)cc4Cl)c3)n2)CC1 [Example 189, 4-(1-(2-Chloro-4-((((1R,3R)-3-hydroxycyclopentyl)amino)methyl)phenyl)-1H-pyrazol-4-yl)-2-((1-(methylsulfonyl)piperidin-4-yl)amino)pyrimidine-5-carbonitrile]
< 50	CS(=O)(=O)N1CCC(Nc2ncc(C#N)c(-c3cnn(-c4ccc(CN[C@H]5C[C@@](C)(O)C5)cc4Cl)c3)n2)CC1 [Example 190, 4-(1-(2-Chloro-4-((((1s,3s)-3-hydroxy-3-methylcyclobutyl)amino)methyl)phenyl)-1H-pyrazol-4-yl)-2-((1-(methylsulfonyl)piperidin-4-yl)amino)pyrimidine-5-carbonitrile]
< 50	CS(=O)(=O)N1CCC(Nc2ncc(C#N)c(-c3cnn(-c4ccc(CN[C@H]5C[C@](C)(O)C5)cc4Cl)c3)n2)CC1 [Example 191, 4-(1-(2-Chloro-4-((((1r,3r)-3-hydroxy-3-methylcyclobutyl)amino)methyl)phenyl)-1H-pyrazol-4-yl)-2-((1-(methylsulfonyl)piperidin-4-yl)amino)pyrimidine-5-carbonitrile]
< 50	CCS(=O)(=O)N1CCC(Nc2ncc(C#N)c(-c3cnn(-c4ccc(CN[C@H]5C[C@@](C)(O)C5)cc4Cl)c3)n2)CC1 [Example 192, 4-(1-(2-Chloro-4-((((1s,3s)-3-hydroxy-3-methylcyclobutyl)amino)methyl)phenyl)-1H-pyrazol-4-yl)-2-((1-(ethylsulfonyl)piperidin-4-yl)amino)pyrimidine-5-carbonitrile]

Source: patent US11472791B2 (Incyte Corporation, priority 2019, dated 2022)
